Laboratory results reported in publication PMC11337205, “Unraveling Interspecies Differences in the Phase I Hepatic Metabolism of Alternariol and Alternariol Monomethyl Ether: Closing Data Gaps for a Comprehensive Risk Assessment” (Chemical Research in Toxicology, 2024).

Assays:
[1] = Pattern of oxidative metabolites in porcine LMs by HR-MS; type: in vitro ADME, pig; settings: for Relative peak area of oxidative metabolite: porcine LMs, normalized to the sum of measured peak areas
Procedure: (§1) The kinetics of the phase I metabolism of AOH and AME was investigated by incubating human, rat (both 1 mg protein/mL), and porcine LMs (2 mg protein/mL) with 1, 10, 20, 50, and 100 μM AOH or 1, 10, 20, and 50 μM AME based on the protocol by Al-Subeihi et al.[34] The incubation solution contained a final concentration of 3 mM NADPH and 1 mM ascorbic acid in 200 mM Tris–HCl (pH 7.4). After preincubation (37 °C, 1 min, mixing at 250–300 rpm), the toxin stock was added in a 1:100 dilution, resulting in a total DMSO content of 1% and the desired toxin concentration. DMSO was selected for this assay because it is the least inhibitory of the solvents studied by Busby et al. on CYP1A1,[35] the primary enzyme involved in the hydroxylation of AOH and AME.[26] The well-established solubility of the test compounds in DMSO and DMSO-containing aqueous buffers facilitated laboratory work and ensured consistency with existing literature, thereby improving the comparability of results across studies, including those of Pfeiffer and colleagues.[25] In a preliminary investigation, incubation times of 5 and 10 min were chosen because they fall within the linear range of the transformation rate–time relationship, thereby ensuring initial rate conditions (Figure S1). When the selected incubation time (0–10 min) passed, one part of the sample was pipetted into two parts of ice-cold extraction solvent (acetonitrile–methanol, 1:1, v/v) for reaction termination. Subsequently, the samples were placed into the freezer (−20 °C) for at least an hour, centrifuged (15 min, 18,000g, 4 °C), and further diluted in methanol–water (3:7, v/v) prior to LC–MS measurements. In the solvent control, the toxin was substituted with DMSO in the incubation solution. Control incubations were performed without the cofactor NADPH or with heat-inactivated microsomes (98 °C, 10 min, mixing at 300 rpm).
Pooled high-resolution MS (HR-MS) samples were analyzed on a Vanquish UHPLC system (Thermo Fisher Scientific, Waltham, MA, USA) connected to a dual-pressure linear trap-quadrupole Orbitrap mass analyzer (Velos ETD, Thermo Fisher Scientific, Waltham, MA, USA). The heated ESI interface (source heater temperature: 400 °C) was operated in both positive and negative modes. The mobile and stationary phases were the same as those for the targeted analysis. The column compartment temperature was kept at 40 °C. A multistep gradient was applied at a flow rate of 0.4 mL/min and started with rinsing the column for 1 min at 10% eluent B. Then, the organic content was linearly raised to 100% until the 11th minute. Subsequently, the column was purged with 100% eluent B for two additional minutes. Finally, the initial eluent composition was reset between minutes 13 and 13.5, followed by a 2 min re-equilibration under these conditions, resulting in a total run time of 15.5 min. Data acquisition and evaluation were performed with the software Skyline (v. 21.1.0.146, MacCoss Lab, Department of Genome Sciences, University of Washington, Seattle, WA, USA), XCalibur (v. 2.2SP1.48), and Chromeleon (v. 7.2.6.; both Thermo Fisher Scientific, Waltham, MA, USA).
As no analytical standards are currently available for the hydroxy (OH) metabolites of AOH and AME, an Alternaria reference mixture containing 4-OH-AOH and 4-OH-AME was used to enable associating peaks with their respective phase I metabolites.

[2] = Pattern of oxidative metabolites in human LMs by HR-MS; type: in vitro ADME; settings: human LMs incubated with AME
Procedure: as §1
Pooled high-resolution MS (HR-MS) samples were analyzed on a Vanquish UHPLC system (Thermo Fisher Scientific, Waltham, MA, USA) connected to a dual-pressure linear trap-quadrupole Orbitrap mass analyzer (Velos ETD, Thermo Fisher Scientific, Waltham, MA, USA). The heated ESI interface (source heater temperature: 400 °C) was operated in both positive and negative modes. The mobile and stationary phases were the same as those for the targeted analysis. The column compartment temperature was kept at 40 °C. A multistep gradient was applied at a flow rate of 0.4 mL/min and started with rinsing the column for 1 min at 10% eluent B. Then, the organic content was linearly raised to 100% until the 11th minute. Subsequently, the column was purged with 100% eluent B for two additional minutes. […]

esophageal cells = system: esophageal cells; set-up: method as in PMID 27422292; settings: cited from earlier work
[3] = Pattern of oxidative metabolites in rat LMs by HR-MS; type: in vitro ADME, Sprague–Dawley rat; settings: rat LMs incubated with AME
Procedure: The kinetics of the phase I metabolism of AOH and AME was investigated by incubating human, rat (both 1 mg protein/mL), and porcine LMs (2 mg protein/mL) with 1, 10, 20, 50, and 100 μM AOH or 1, 10, 20, and 50 μM AME based on the protocol by Al-Subeihi et al.[34] The incubation solution contained a final concentration of 3 mM NADPH and 1 mM ascorbic acid in 200 mM Tris–HCl (pH 7.4). After preincubation (37 °C, 1 min, mixing at 250–300 rpm), the toxin stock was added in a 1:100 dilution, resulting in a total DMSO content of 1% and the desired toxin concentration. DMSO was selected for this assay because it is the least inhibitory of the solvents studied by Busby et al. on CYP1A1,[35] the primary enzyme involved in the hydroxylation of AOH and AME.[26] The well-established solubility of the test compounds in DMSO and DMSO-containing aqueous buffers facilitated laboratory work and ensured consistency with existing literature, thereby improving the comparability of results across studies, including those of Pfeiffer and colleagues.[25] […]
Pooled high-resolution MS (HR-MS) samples were analyzed on a Vanquish UHPLC system (Thermo Fisher Scientific, Waltham, MA, USA) connected to a dual-pressure linear trap-quadrupole Orbitrap mass analyzer (Velos ETD, Thermo Fisher Scientific, Waltham, MA, USA). […]

[4] = Phase I metabolism kinetics (parent toxin loss) in NADPH-fortified porcine liver microsomes, LC-MS/MS; type: in vitro ADME, pig; settings: for microsomal CLint: female, Large White, pig, liver microsomes, pH 7.4, porcine LMs, read-out: CLint (intrinsic clearance); for Concentration decrease: porcine LMs
Procedure: (§2) Pooled human LMs and pooled Sprague–Dawley rat hepatic microsomes, both originating from male donors, were purchased from Sigma-Aldrich (St. Louis, MO, USA) and Gibco, Thermo Fisher Scientific (Waltham, MA, USA), respectively. Porcine LMs were prepared according to an in-house-developed protocol based on the publication of Knights et al.[32] The liver of an approximately four-month-old female “Large White” (or “German Edelschwein”) pig was obtained from a local slaughterhouse. After slaughtering, the liver was placed on ice for about an hour, kept in ice-cold 50 mM tris(hydroxymethyl)aminomethane hydrochloride (Tris–HCl) (pH 7.4) for an additional hour while being transported, and processed immediately.
as §1
(§3) The quantification of selected analytes using external calibration (MS parameters listed in Supporting Information Table S1) was conducted on a high-performance liquid chromatographic system (Dionex UltiMate 3000 UHPLC, Dionex Softron GmbH, Germering, Germany) coupled to a triple quadrupole mass spectrometer (TSQ Vantage, Thermo Fisher Scientific, Waltham, MA, USA), equipped with a heated electrospray ionization (ESI) interface. The applied analytical method is based on Puntscher et al.[28],[36] with slight modifications, which are specified below.
(§4) In brief, the Ascentis Express C18 column (10 cm × 2.1 mm, 2.7 μm, Supelco, Munich, DE), equipped with the Phenomenex SecurityGuard (C18 Cartridges, 4 × 2.0 mm ID, Phenomenex Ltd. Deutschland, Aschaffenburg, Germany), served as the stationary phase. Eluent A was aqueous ammonium acetate (5 mM, pH adjusted to 8.6 with a 25% ammonia solution), and eluent B was methanol. During the first minute, the column was kept at 30% eluent B. Subsequently, the eluent B content was linearly raised to 100% within 6 min. Thereafter, the column was washed with 100% eluent B for 1.5 min. Lastly, the column was re-equilibrated at the initial conditions, reaching an overall run time of 10 min. The autosampler compartment was kept at 10 °C, while the column oven temperature was maintained at 30 °C. […]

[5] = Caco-2 cell monolayers; cited from earlier work
[6] = Phase I metabolism kinetics (parent toxin loss) in NADPH-fortified human liver microsomes, LC-MS/MS; type: in vitro ADME; settings: for microsomal CLint: human, pH 7.4, human LMs, read-out: CLint (intrinsic clearance)
Procedure: as §2, §1, §3, §4

[7] = Phase I metabolism kinetics (parent toxin loss) in NADPH-fortified rat liver microsomes, LC-MS/MS; type: in vitro ADME, Sprague–Dawley rat; settings: for microsomal CLint: male, Sprague-Dawley, rat, liver microsomes, pH 7.4, rat LMs, read-out: CLint (intrinsic clearance); for Concentration decrease: rat LMs
Procedure: as §2, §1, §3, §4

[8] = oral administration, rats; cited from earlier work
[9] = 10 min incubation with 10 μM AME
[10] = Michaelis–Menten model, ratio Vmax/Km
[11] = linear regression, lower concentration range

Structure (SMILES): COc1cc(O)c2c(=O)oc3cc(O)c(O)c(C)c3c2c1 [2-OH-AME]
- relative abundance among phase I metabolites (in words) ([1]; porcine LMs incubated with AME): main metabolites
- Relative peak area of oxidative metabolite [1, 9]: 30%
- relative abundance among phase I metabolites (in words) [2]: most abundant

Structure (SMILES): COc1cc(O)c2c(=O)oc3c(O)c(O)cc(C)c3c2c1 [4-OH-AME]
- Relative peak area of oxidative metabolite [1, 9]: less than 20%
- genotoxic effects compared with parent compound (esophageal cells): less pronounced genotoxic effects
- relative abundance among phase I metabolites (in words) [2]: most abundant

Structure (SMILES): Cc1cc(O)c(O)c2oc(=O)c3c(O)cc(O)cc3c12 [4-OH-AOH]
- relative abundance among phase I metabolites (in words) ([1]; porcine LMs incubated with AOH): primary oxidative metabolite
- Relative peak area of oxidative metabolite ([1]; 10 min incubation with 10 μM AOH): 50%
- genotoxic effects compared with parent compound (esophageal cells): less pronounced genotoxic effects

Structure (SMILES): COc1cc2c(c(O)c1O)c(=O)oc1cc(O)cc(C)c12 [8-OH-AME]
- relative abundance among phase I metabolites (in words) [3]: main metabolites
- relative abundance among phase I metabolites (in words) [2]: small amounts

Structure (SMILES): Cc1cc(O)cc2oc(=O)c3c(O)c(O)c(O)cc3c12 [8-OH-AOH]
- relative abundance among phase I metabolites (in words) ([1]; porcine LMs incubated with AOH): small amounts

Structure (SMILES): COc1cc(O)c2c(=O)oc3cc(O)cc(C)c3c2c1 [AME, alternariol 9-O-monomethyl ether]
- microsomal CLint [4, 10]: 19.5 µL/min/mg
- microsomal CLint [4, 11]: 19 µL/min/mg
- Concentration decrease ([4]; 1 µM toxin, 5 min): 16%
- Concentration decrease ([4]; 1 µM toxin, 10 min): 38%
- Concentration decrease ([4]; 10 µM toxin, 5 min): 13%
- Concentration decrease ([4]; 10 µM toxin, 10 min): 24%
- Concentration decrease ([4]; 20 µM toxin, 5 min): 19%
- Concentration decrease ([4]; 20 µM toxin, 10 min): 30%
- Concentration decrease ([4]; 50 µM toxin, 5 min): 20%
- Concentration decrease ([4]; 50 µM toxin, 10 min): 27%
- intestinal absorption [5]: limited intestinal absorption
- Concentration decrease ([6]; human LMs, 1 µM toxin, 5 min): 35%
- Concentration decrease ([6]; human LMs, 1 µM toxin, 10 min): 59%
- Concentration decrease ([6]; human LMs, 10 µM toxin, 5 min): 26%
- Concentration decrease ([6]; human LMs, 10 µM toxin, 10 min): 19%
- Concentration decrease ([6]; human LMs, 20 µM toxin, 5 min): 8%
- Concentration decrease ([6]; human LMs, 20 µM toxin, 10 min): 26%
- Concentration decrease ([6]; human LMs, 50 µM toxin, 5 min): 2%
- Concentration decrease ([6]; human LMs, 50 µM toxin, 10 min): 47%
- Vmax (maximum transformation rate) ([6]; human LMs, within 10 min, Michaelis–Menten model): 772 pmol/mg/min
- microsomal CLint ([6]; male, liver microsomes, Michaelis–Menten model, ratio Vmax/Km): 26.3 µL/min/mg
- microsomal CLint ([6]; male, liver microsomes, linear regression, lower concentration range): 15.8 µL/min/mg
- Km ([6]; male, liver microsomes, pH 7.4, human LMs 1 mg protein/mL, NADPH, within 10 min, Michaelis–Menten model, read-out: Km (Michaelis constant)): 29.4 µM
- microsomal CLint [7, 10]: 45.2 µL/min/mg
- microsomal CLint [7, 11]: 46.2 µL/min/mg
- Concentration decrease ([7]; 1 µM toxin, 5 min): 28%
- Concentration decrease ([7]; 1 µM toxin, 10 min): 43%
- Concentration decrease ([7]; 10 µM toxin, 5 min): 24%
- Concentration decrease ([7]; 10 µM toxin, 10 min): 48%
- Concentration decrease ([7]; 20 µM toxin, 5 min): 20%
- Concentration decrease ([7]; 20 µM toxin, 10 min): 48%
- Concentration decrease ([7]; 50 µM toxin, 5 min): 17%
- Concentration decrease ([7]; 50 µM toxin, 10 min): 48%
- absorbed fraction [8]: less than 10%
